The test system of assay [1] is HEK293 T cells. Kind of assay: GFP to BFP fluorescent reporter assay of HDR efficiency (AAVS1 locus). The class given is cell-based, human. The procedure: The effect of DNA PK inhibition by Nu7441 correction of a DSB by the NHEJ pathway (e.g., introduce an indel at the DSB site) or HDR pathway (e.g., introduce a gene mutation encoded by a homology donor at the DSB site) was assessed using the reporter system described in Example 1. In this case gene-editing was evaluated in HEK293 T cells expressing GFP in the AAVS1 locus. To introduce a gene edit that converts GFP to BFP, cells were electroporated with ribonucleoprotein (RNP) comprised of Cas9 and gRNA1 (GFP target sequence identified by SEQ ID NO: 9; sgRNA spacer sequence identified by SEQ ID NO: 10) or gRNA2 (GFP target sequence identified by SEQ ID NO: 11; sgRNA spacer identified by SEQ ID NO: 12) that targets the GFP gene encoded in the AAVS1 locus. The cells were also transfected with ssODNs that encoded the gene correction necessary to convert GFP to BFP and homology arms complimentary to the sequence upstream and downstream of the target gene cut site. The efficiency of HDR repair was determined by measuring the level of cell BFP fluorescence. The efficiency of cutting (indel information) was monitored by TIDE analysis.
Shown in FIGS. 2A-2B is a comparison of HDR editing efficiency for cells treated with Nu7441, SCR7, or RS-1. Shown in FIG. 2A are cells were electroporated with RNP comprising Cas9 and gRNA1 (GFP target sequence shown in SEQ ID NO: 9; sgRNA spacer sequence identified by SEQ ID NO: 10). 2×10^5 cells were edited with 1 μM Cas9 and 1.5 μM gRNA1. The cells were transfected with four different ssODNs. These included ssODN 1067 (SEQ ID NO: 29) and ssODN 1069 (SEQ ID NO: 31) that are complimentary to the DNA strand containing the PAM sequence and ssODN 1068 (SEQ ID NO: 30) and ssODN 1070 (SEQ ID NO: 32) that are complimentary to the DNA strand not containing the PAM sequence. Cells were edited with 100 μM ssODN. A concentrated stock solution of each inhibitor was prepared in DMSO and diluted to a final concentration of 2.5 μM Nu7441, 1.25 μM SCR7, or 10 μM RS-1. HDR efficiency was compared relative to treatment with DMSO alone or to treatment with RNP-only.
Shown in FIG. 2B are cells were electroporated with RNP comprising Cas9 and gRNA2 (GFP target sequence shown in SEQ ID NO: 11; sgRNA spacer sequence shown in SEQ ID NO: 12). The cells were transfected with four different ssODNs. These included ssODN 1061 (SEQ ID NO: 33) and ssODN 1063 (SEQ ID NO: 35) that are complimentary to the DNA strand containing the PAM sequence and ssODN 1062 (SEQ ID NO: 34) and ssODN 1064 (SEQ ID NO: 36) that are complimentary to the DNA strand not containing the PAM sequence.
A general note: In a reporter assay the amount or activity of a reporter protein is the signal.

The test system of assay [2] is HEK293 T cells. Kind of assay: Gene correction by NHEJ repair at GSD1a locus with dsDNA donors. The class given is cell-based, human. The settings on record: dsDNA donor 50-0 or 150-0, 2.5 μM Nu7441, 1.25 μM SCR7 or 10 μM RS-1, vs DMSO alone, FIG. 3. The procedure:
The effect of Nu7441 treatment on gene correction by the NHEJ pathway was also evaluated. To do so, the cells were transfected with two different dsDNA donors: 50-0 (SEQ ID NO: 37) or 150-0 (SEQ ID NO: 38). Cells were edited with 1.5 μg dsDNA donor. These dsDNA donors, lacking homology arms, introduce a second 3′ splice site into exon 2 at the GSD1a locus when inserted into the cut site induced by the Cas9-guide complex by NHEJ repair. The cells were treated with 2.5 μM Nu7441, 1.25 μM SCR7, or 10 μM RS-1 and gene correction by NHEJ repair was evaluated. […] Treatment with SCR7 or RS-1 had no effect over DMSO alone.

The mark [3] stands for this setting: gRNA1, ssODN 1067-1070, 2.5 μM Nu7441, 1.25 μM SCR7 or 10 μM RS-1, vs DMSO, FIG. 2A.

On to `O=c1cc(N2CCOCC2)oc2c(-c3cccc4c3sc3ccccc34)cccc12` [Nu7441], for which the HDR efficiency entry in the assay on HEK293 T cells [1] (setting [3]) was “improved”; with HEK293 T cells [1] (gRNA2, ssODN 1061-1064, 2.5 μM Nu7441), “improved”. The “gene correction by NHEJ repair” value in the assay on HEK293 T cells [2] is “substantial decrease”.
On to `O=C(Nc1ccc(Br)cc1)c1ccc(Br)c(S(=O)(=O)NCc2ccccc2)c1` [RS-1], for which, in the assay on HEK293 T cells [1] (setting [3]), the HDR efficiency entry is recorded as “no improvement”. Moreover, in the assay with HEK293 T cells [2], the “gene correction by NHEJ repair” value is “no effect”.
Turning to `O=c1[nH]c(=S)[nH]c(N=Cc2ccccc2)c1N=Cc1ccccc1` [SCR7], the HDR efficiency entry in the assay with HEK293 T cells [1] (setting [3]) is “no improvement”. The “gene correction by NHEJ repair” value in the assay on HEK293 T cells [2] is reported as “no effect”.
